Assay results reported in PubChem BioAssay AID1918999 (Molecular Pharmacology Branch, DTP, NCI, 2023).

Tested on: 556581-035-R-J1-PDC complex spheroid growth
Assay: Anticancer human tumor 556581-035-R-J1-PDC patient-derived ovarian carcinoma cell line growth inhibition [AhR]
Conditions: for IC50: curve of first compound; for viability, T/C: stronger effect = lower value
In short: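 Spheroids combined tumor cells with HUVEC endothelial cells and human MSCs as stroma. AhR antagonists were paired with standard or investigational drugs, each dosed in half-log steps down from near clinical Cmax, or from 10 microM where Cmax was unknown.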
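Wherever viability, T/C is given: compound exposure lasted 7 days; 100% = DMSO vehicle control growth.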

O=C(C=Cc1cccc(S(=O)(=O)Nc2ccccc2)c1)NO + CC(CO)NC(=O)c1cc(-c2ccc(Cl)cc2)nn(-c2cnn(C)c2)c1=O
IC50 (second compound 0.1 µM): 1180 nM
IC50 (second compound 0.316 µM): 1280 nM
IC50 (second compound 1 µM): 1470 nM
IC50 (second compound 3.16 µM): 1190 nM
IC50 (second compound 10 µM): 1080 nM
viability, T/C (second compound 0.1 µM, first compound 0.0316 µM): 96.6%
viability, T/C (second compound 0.1 µM, first compound 0.1 µM): 88.9%
viability, T/C (second compound 0.1 µM, first compound 0.316 µM): 75.1%
viability, T/C (second compound 0.1 µM, first compound 1 µM): 53.6%
viability, T/C (second compound 0.1 µM, first compound 3.16 µM): 27.9%
viability, T/C (second compound 0.1 µM, first compound 10 µM): 3.75%
viability, T/C (second compound 0.316 µM, first compound 0.0316 µM): 94%
viability, T/C (second compound 0.316 µM, first compound 0.1 µM): 91.2%
viability, T/C (second compound 0.316 µM, first compound 0.316 µM): 80.6%
viability, T/C (second compound 0.316 µM, first compound 1 µM): 56.2%
viability, T/C (second compound 0.316 µM, first compound 3.16 µM): 25.7%
viability, T/C (second compound 0.316 µM, first compound 10 µM): 3.23%
viability, T/C (second compound 1 µM, first compound 0.0316 µM): 105%
viability, T/C (second compound 1 µM, first compound 0.1 µM): 96.8%
viability, T/C (second compound 1 µM, first compound 0.316 µM): 88%
viability, T/C (second compound 1 µM, first compound 1 µM): 63.6%
viability, T/C (second compound 1 µM, first compound 3.16 µM): 24.9%
viability, T/C (second compound 1 µM, first compound 10 µM): 2.84%
viability, T/C (second compound 3.16 µM, first compound 0.0316 µM): 98.7%
viability, T/C (second compound 3.16 µM, first compound 0.1 µM): 93.7%
viability, T/C (second compound 3.16 µM, first compound 0.316 µM): 74.1%
viability, T/C (second compound 3.16 µM, first compound 1 µM): 54.1%
viability, T/C (second compound 3.16 µM, first compound 3.16 µM): 28.1%
viability, T/C (second compound 3.16 µM, first compound 10 µM): 3.83%
viability, T/C (second compound 10 µM, first compound 0.0316 µM): 105%
viability, T/C (second compound 10 µM, first compound 0.1 µM): 104%
viability, T/C (second compound 10 µM, first compound 0.316 µM): 75.8%
viability, T/C (second compound 10 µM, first compound 1 µM): 53%
viability, T/C (second compound 10 µM, first compound 3.16 µM): 24.3%
viability, T/C (second compound 10 µM, first compound 10 µM): 4.22%
